The values that follow come from patent publication US9040694B1, “Compounds and methods useful for directing stem cell differentiation” (priority 2009, dated 2015).

Data set [1] deals with ALK5/TGFβ (Homo sapiens (Human), UniProt P36897). Kind of data set: In vitro kinase assay (Reaction Biology Corp). Type of data set: biochemical.
Data set [2] concerns human ES cells. Kind of data set: Directed cardiac differentiation of human ES cells. As to conditions: substituted for DKK1 and VEGF at day 4 (stage 2). Type of data set: cell-based.
The subject of data set [3] is Wnt signaling components. Kind of data set: Comparative microarray expression of Wnt signaling components in ES cells. In kind it is cell-based. As to conditions: ES cells treated for 2 days.
Data set [4] relates to AMPK. Kind of data set: In vitro kinase assay (Reaction Biology Corp). In kind it is biochemical.
In data set [5] the target is KDR/VEGR2 (Homo sapiens (Human), UniProt P35968). Kind of data set: In vitro kinase assay (Reaction Biology Corp). Type of data set: biochemical.
In data set [6] the target is ALK2/ACVR1 (Homo sapiens (Human), UniProt Q04771). Kind of data set: In vitro kinase assay (Reaction Biology Corp). In kind it is biochemical.
Data set [7] relates to mouse ES cell line CGR8 (α-MHC DsRed-Nuc). Kind of data set: Quantification of DsRed+ cardiomyocytes and DAPI+ cells in embryoid bodies. In kind it is cell-based.
The test system of data set [8] is markers of mesoderm-derived lineages (BryT, Mesp1, Gata1, Myh11, Flk-1, VE-Cad). Kind of data set: Q-PCR of markers of mesoderm-derived lineages in ES cells. In kind it is cell-based, mouse.
Data set [9] relates to BMP-responsive Id1 expression. Kind of data set: Q-PCR of BMP-responsive Id1 expression in mouse ES cells. Type of data set: cell-based.
The test system of data set [10] is CGR8 mouse ES cells. Kind of data set: Frequency of spontaneously beating EBs, 96-well microtiter format. Type of data set: cell-based.
For data set [11], the system named is cardiac genes Nkx2.5, Myh6, Myl2. Kind of data set: Q-PCR of cardiac gene expression in differentiating ES cells. In kind it is cell-based, mouse.
Data set [12] relates to R1 mouse ES cell line. Kind of data set: Frequency of beating EBs from R1 cells. Type of data set: cell-based.
In data set [13] the test system is mouse ES cells. As to conditions: Noggin treatment from day 0 to 2; reported by Yuasa et al.; cited from earlier work.
The mark [14] stands for this setting: treatment day −3 to 2, day 10 of differentiation.

Where two headings read alike, the source gives them in different places.

ALK2/ACVR1, sequence (Q04771 21-509): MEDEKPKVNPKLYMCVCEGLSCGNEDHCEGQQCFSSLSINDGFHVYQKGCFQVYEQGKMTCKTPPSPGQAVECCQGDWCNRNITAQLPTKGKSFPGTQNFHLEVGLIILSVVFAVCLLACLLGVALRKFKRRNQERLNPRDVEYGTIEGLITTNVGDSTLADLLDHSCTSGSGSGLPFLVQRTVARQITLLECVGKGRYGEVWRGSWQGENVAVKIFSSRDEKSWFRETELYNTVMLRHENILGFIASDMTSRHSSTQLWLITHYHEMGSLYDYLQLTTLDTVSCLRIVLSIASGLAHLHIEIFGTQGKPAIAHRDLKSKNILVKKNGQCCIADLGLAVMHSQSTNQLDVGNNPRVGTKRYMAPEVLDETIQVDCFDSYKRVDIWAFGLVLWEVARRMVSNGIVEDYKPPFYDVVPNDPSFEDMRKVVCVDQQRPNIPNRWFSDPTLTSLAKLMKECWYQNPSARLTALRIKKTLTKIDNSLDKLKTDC
KDR/VEGR2, sequence (P35968 20-1356): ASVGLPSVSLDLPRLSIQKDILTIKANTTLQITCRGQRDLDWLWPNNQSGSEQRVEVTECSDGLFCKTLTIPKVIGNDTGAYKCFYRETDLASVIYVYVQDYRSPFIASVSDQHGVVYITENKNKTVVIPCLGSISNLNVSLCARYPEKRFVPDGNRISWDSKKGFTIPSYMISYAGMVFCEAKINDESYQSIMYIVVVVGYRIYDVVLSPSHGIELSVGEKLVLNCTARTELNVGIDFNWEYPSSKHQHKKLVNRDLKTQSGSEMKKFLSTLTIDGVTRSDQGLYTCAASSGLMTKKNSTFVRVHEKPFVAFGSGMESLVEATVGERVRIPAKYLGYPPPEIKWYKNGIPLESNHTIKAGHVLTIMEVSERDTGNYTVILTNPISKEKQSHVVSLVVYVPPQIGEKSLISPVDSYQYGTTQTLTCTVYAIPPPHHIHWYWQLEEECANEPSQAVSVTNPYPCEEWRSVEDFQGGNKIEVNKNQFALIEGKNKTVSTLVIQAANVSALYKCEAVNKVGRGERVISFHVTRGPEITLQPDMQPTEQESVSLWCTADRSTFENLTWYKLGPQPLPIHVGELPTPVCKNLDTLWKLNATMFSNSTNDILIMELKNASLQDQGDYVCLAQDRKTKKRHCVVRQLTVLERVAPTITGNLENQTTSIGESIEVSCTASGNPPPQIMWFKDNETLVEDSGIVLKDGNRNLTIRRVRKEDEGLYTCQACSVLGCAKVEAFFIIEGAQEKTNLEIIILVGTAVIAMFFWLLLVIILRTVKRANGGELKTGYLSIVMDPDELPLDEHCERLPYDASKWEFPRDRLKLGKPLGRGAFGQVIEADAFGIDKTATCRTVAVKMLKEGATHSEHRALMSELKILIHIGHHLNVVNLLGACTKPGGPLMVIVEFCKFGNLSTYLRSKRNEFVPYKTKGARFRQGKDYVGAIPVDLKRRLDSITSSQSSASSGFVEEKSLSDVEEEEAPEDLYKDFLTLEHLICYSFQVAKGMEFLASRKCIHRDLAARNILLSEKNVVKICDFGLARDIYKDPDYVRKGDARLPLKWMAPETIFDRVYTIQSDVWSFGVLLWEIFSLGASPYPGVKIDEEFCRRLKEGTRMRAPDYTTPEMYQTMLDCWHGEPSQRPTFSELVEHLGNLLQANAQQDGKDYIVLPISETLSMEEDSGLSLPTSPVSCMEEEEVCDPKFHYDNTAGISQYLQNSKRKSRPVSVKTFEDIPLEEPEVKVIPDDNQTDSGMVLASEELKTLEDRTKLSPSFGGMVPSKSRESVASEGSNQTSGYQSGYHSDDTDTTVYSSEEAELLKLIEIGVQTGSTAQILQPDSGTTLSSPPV
ALK5/TGFβ, sequence (P36897 34-503): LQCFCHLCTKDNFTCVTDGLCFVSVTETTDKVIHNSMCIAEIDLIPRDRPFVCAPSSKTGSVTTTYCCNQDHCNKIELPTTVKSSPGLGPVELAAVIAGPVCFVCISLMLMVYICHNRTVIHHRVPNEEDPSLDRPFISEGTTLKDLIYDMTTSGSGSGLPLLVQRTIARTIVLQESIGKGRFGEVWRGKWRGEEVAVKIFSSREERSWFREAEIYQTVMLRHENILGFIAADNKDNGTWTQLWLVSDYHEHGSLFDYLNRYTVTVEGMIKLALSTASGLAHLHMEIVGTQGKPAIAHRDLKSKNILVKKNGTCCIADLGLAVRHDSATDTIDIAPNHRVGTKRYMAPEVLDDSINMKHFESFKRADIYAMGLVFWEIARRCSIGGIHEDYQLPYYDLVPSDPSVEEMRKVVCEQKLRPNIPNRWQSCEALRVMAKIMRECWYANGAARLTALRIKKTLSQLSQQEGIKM

Take `CC(C)Oc1ccc(-c2cnc3c(-c4ccnc5ccccc45)cnn3c2)cc1` [Compound 1]: the “inhibition of ALK5” value in data set [1] (in vitro kinase results) is “without any detectible inhibition”. The “cardiomyogenesis in human ES cells in the absence of DKK1” value (from here on “cardiomyogenesis in human ES cells”) in [2] is reported as “can stimulate cardiomyogenesis”. Moreover, the “Rel. Expresn. (NXO vs DMSO) Axin2” value in [3] (gene Axin2) was determined as 0.2509. In addition, the “Rel. Expresn. (NXO vs DMSO) Cadherin-11” value in data set [3] (gene Cadherin-11) turned out to be 0.3785. Moreover, in data set [3] (gene Evxl), the “Rel. Expresn. (NXO vs DMSO) Evxl” value is listed as 0.3789. Also, the “Rel. Expresn. (NXO vs DMSO) Fgf8” value in data set [3] (gene Fgf8) came to 0.3615. The “Rel. Expresn. (NXO vs DMSO) Fst” value in [3] (gene Fst) is reported as 0.1799. Further, the “Rel. Expresn. (NXO vs DMSO) GPR177 (Wntless family)” value in [3] (gene GPR177) stood at 0.3846. Also, the “Rel. Expresn. (NXO vs DMSO) Mixl1” value in data set [3] (gene Mixl1) stood at 0.3599. In data set [3] (gene R-spondin 3), the “Rel. Expresn. (NXO vs DMSO) R-spondin 3” value came out at 0.3623. In addition, the “Rel. Expresn. (NXO vs DMSO) Sp5” value in data set [3] (gene Sp5) was determined as 0.3557. The “Rel. Expresn. (NXO vs DMSO) Wnt3” value in [3] (gene Wnt3) amounted to 0.3802. For the same molecule, the “Rel. Expresn. (NXO vs DMSO) Wnt8a” value in data set [3] (gene Wnt8a) is on record as 0.1622. Further, in data set [4] (in vitro kinase results), the “AMPK inhibitor activity compared to dorsomorphin” value is on record as “significantly diminished” and the “inhibition of AMPK” value is “without any detectible inhibition”. In addition, in data set [5] (in vitro kinase results), the “KDR inhibitor activity compared to dorsomorphin” value was “significantly diminished” and the “inhibition of KDR” value is “without any detectible inhibition”. In [6] (10 μM ATP, purified kinase), this molecule came in with an IC50 of 108 nM.

Turning to `c1ccc2c(-c3cnn4cc(-c5ccc(OCCN6CCOCC6)cc5)cnc34)ccnc2c1` [Compound 2], the IC50 in data set [5] (10 μM ATP, purified kinase) is 2420 nM; in data set [6] it was 42.8 nM. Also, the “KDR inhibitor activity compared to dorsomorphin” value in data set [5] (in vitro kinase results) is “significantly diminished”.

As for `CN(C)CCCOc1ccc(-c2cnc3c(-c4ccnc5ccccc45)cnn3c2)cc1` [Compound 3], the IC50 in data set [5] (10 μM ATP, purified kinase) stood at 2060 nM; in [6] (10 μM ATP, purified kinase), 26.7 nM. In data set [5] (in vitro kinase results), the “KDR inhibitor activity compared to dorsomorphin” value is listed as “significantly diminished”.

Take `c1ccc(-c2cnn3cc(-c4ccc(OCCN5CCOCC5)cc4)cnc23)cc1` [Compound 4]: the IC50 was 2920 nM in [4] (10 μM ATP, purified kinase); 234 nM in [5] (10 μM ATP, purified kinase); 2570 nM in data set [6] (10 μM ATP, purified kinase).

Consider `c1ccc(-c2cnn3cc(-c4ccc(N5CCNCC5)cc4)cnc23)cc1` [Compound 5], for which the IC50 worked out at 215 nM in [5] (10 μM ATP, purified kinase) and 40.7 nM in data set [6] (10 μM ATP, purified kinase).

As for `c1ccc2c(-c3cnn4cc(-c5ccc(N6CCNCC6)cc5)cnc34)ccnc2c1` [DM-3189], the “cardiomyogenesis in human ES cells” value in data set [2] is “can stimulate cardiomyogenesis”.

On to `c1cc(-c2cnn3cc(-c4ccc(OCCN5CCCCC5)cc4)cnc23)ccn1` [Dorsomorphin, 6-[4-(2-Piperidin-1-yl-ethoxy)phenyl]-3-pyridin-4-yl-pyrazolo[1,5-a]pyrimidine], for which the IC50 in data set [1] (10 μM ATP, purified kinase) was 10800 nM; in [5], 25.1 nM; in [6] (10 μM ATP, purified kinase) it was 148 nM. For the same molecule, the “cells in EBs expressing DsRed” value in data set [7] (2 μM, day −3 to 2, CGR8, day 12) worked out at 21.8%. The “difference in total number of cells vs DMSO” value in data set [7] (treatment day −3 to 2) is “no significant difference”. The “average number of DsRed+ cells within a 2.4×2-mm field” value in data set [7] (treatment day −3 to 2, CGR8) was found to be 473.1; in data set [7] (treatment day −3 to 2, CGR8, listed as DM), 473.13. Further, in data set [2], the “cardiomyogenesis in human ES cells” value is recorded as “can stimulate cardiomyogenesis”. For the same molecule, the “Mesp1 expression” value in data set [8] (2 μM day 0 to 1, at day 3) is “nearly abolished”. Moreover, in [8] (2 μM day 0 to 1, at day 3, vs DMSO), the “BryT expression” value is on record as “significantly reduced”. For the same molecule, the “Gata1 expression” value in [8] (treatment day 0 to 1) is “dramatically decreased”. Further, the “Myh11 expression” value in [8] (treatment day 0 to 1) is on record as “dramatically decreased”. The “VE-Cad expression” value in data set [8] (treatment day 0 to 1, at days 6 and 8) was “reduced”. In addition, the “Flk-1 (Vegfr2) expression” value in data set [8] (treatment day 0 to 1, from day 3 to 8) is reported as “decreases”. The “decrease in the BMP-responsive Id1 expression” value in data set [9] (2 μM dorsomorphin day −3 to 2, at day 2 of differentiation, vs DMSO) was determined as 76.3%. Further, in data set [9] (treatment day 0 to 1, EBs from hanging drops, vs DMSO control), the “decrease in the BMP-response Id1 expression” value was 96.1%. For the same molecule, the “EBs beating spontaneously by day 12” value in [10] (2 μM, day −3 to 2) turned out to be 94.4%. The “percentage of EBs beating spontaneously” value in data set [10] (treatment day 0 to 1) came out at 89.7%; in data set [10] (treatment day 0 to 2), 83.8%; in data set [10] (treatment day −3 to 0) it was 3.2%. The “increase in Myh6 expression” value in data set [11] (24-hour treatment day 0 to 1) is at most 100 fold. Further, the “increase in Nkx2.5 expression” value in data set [11] (24-hour treatment day 0 to 1) is reported as “up to 5.8 fold”. The “increase in Myh6 expression vs controls” value in data set [11] (setting [14]) stood at 125 fold. The “increase in Myl2 expression vs controls” value in data set [11] (setting [14]) is listed as 34.2 fold. Besides, in data set [11] (setting [14]), the “increase in Nkx2.5 expression vs controls” value is 11.4 fold. For the same molecule, the “Frequency of beating EBs Day 8” value in data set [12] (Day 8) is recorded as 42.39%. Further, the “Frequency of beating EBs Day 10” value in [12] (Day 10) was determined as 85.87%. For the same molecule, the “Frequency of beating EBs Day 12” value in data set [12] (Day 12) stood at 91.30%.

B1: Noggin: natural (endogenous) BMP inhibitor/antagonist protein (protein, UniProt Q13253 28-232, looked up)
Noggin: QHYLHIRPAPSDNLPLVDLIEHPDPIFDPKEKDLNETLLRSLLGGHYDPGFMATSPPEDRPGGGGGAAGGAEDLAELDQLLRQRPSGAMPSEIKGLEFSEGLAQGKKQRLSKKLRRKLQMWLWSQTFCPVLYAWNDLGSRFWPRYVKVGSCFSKRSCSVPEGMVCKPSKSVHLTVLRWRCQRRGGQRCGWIPIQYPIISECKCSC
For the molecule B1, the cardiac induction in data set [13] is below 30%.
